# Results taken from article PMC9481151, “Discovery of new symmetrical and asymmetrical nitrile-containing 1,4-dihydropyridine derivatives as dual kinases and P-glycoprotein inhibitors: synthesis, in vitro assays, and in silico studies” (Journal of Enzyme Inhibition and Medicinal Chemistry, 2022).
# Assays:
# [1] = tested on: COLO 205; assay: NCI single dose (10 µM) SRB screen; type: cell-based, human; conditions: colon cancer, 48 h
# [2] = tested on: SR; assay: NCI single dose (10 µM) SRB screen; type: cell-based, human; conditions: leukaemia, 48 h
# [3] = tested on: TK-10; assay: NCI single dose (10 µM) SRB screen; type: cell-based, human; conditions: renal cancer, 48 h
# [4] = tested on: NCI 60 cancer cell lines; assay: NCI single dose (10 µM) SRB screen, mean over panel; type: cell-based, human; conditions: mean over 60 cell lines, 48 h
# [5] = tested on: SK-OV-3; assay: NCI single dose (10 µM) SRB screen; type: cell-based, human; conditions: ovarian cancer, 48 h
# [6] = tested on: HS578T; assay: NCI single dose (10 µM) SRB screen; type: cell-based, human; conditions: breast cancer, 48 h
# [7] = tested on: 786-0; assay: NCI single dose (10 µM) SRB screen; type: cell-based, human; conditions: renal cancer, 48 h
# [8] = tested on: Staphylococcus aureus; assay: Agar well diffusion method; conditions: relative to ciprofloxacin
# [9] = tested on: UACC-62; assay: NCI single dose (10 µM) SRB screen; type: cell-based, human; conditions: melanoma, 48 h
# [10] = tested on: NCI/ADR-RES; assay: NCI single dose (10 µM) SRB screen; type: cell-based, human; conditions: ovarian cancer, 48 h
# [11] = tested on: LOX IMVI; assay: NCI single dose (10 µM) SRB screen; type: cell-based, human; conditions: melanoma, 48 h
# [12] = tested on: SK-MEL-5; assay: NCI single dose (10 µM) SRB screen; type: cell-based, human; conditions: melanoma, 48 h
# [13] = tested on: A498; assay: NCI single dose (10 µM) SRB screen; type: cell-based, human; conditions: renal cancer, 48 h
# [14] = tested on: Bacillus subtilis; assay: Agar well diffusion method; conditions: relative to ciprofloxacin
# [15] = tested on: MALME-3M; assay: NCI single dose (10 µM) SRB screen; type: cell-based, human; conditions: melanoma, 48 h
# [16] = tested on: OVCAR-4; assay: NCI single dose (10 µM) SRB screen; type: cell-based, human; conditions: ovarian cancer, 48 h
# [17] = tested on: Aspergillus flavus; assay: Agar well diffusion method; conditions: relative to clotrimazole
# [18] = tested on: EKVX; assay: NCI single dose (10 µM) SRB screen; type: cell-based, human; conditions: non-small cell lung cancer, 48 h
# [19] = tested on: SF-295; assay: NCI single dose (10 µM) SRB screen; type: cell-based, human; conditions: CNS cancer, 48 h
# [20] = tested on: M14; assay: NCI single dose (10 µM) SRB screen; type: cell-based, human; conditions: melanoma, 48 h
# [21] = tested on: SNB-75; assay: NCI single dose (10 µM) SRB screen; type: cell-based, human; conditions: CNS cancer, 48 h
# [22] = tested on: MDA-MB-231; assay: NCI single dose (10 µM) SRB screen; type: cell-based, human; conditions: breast cancer, 48 h
# [23] = tested on: CAKI-1; assay: NCI single dose (10 µM) SRB screen; type: cell-based, human; conditions: renal cancer, 48 h
# [24] = tested on: SK-MEL-28; assay: NCI single dose (10 µM) SRB screen; type: cell-based, human; conditions: melanoma, 48 h
# [25] = tested on: BT-549; assay: NCI single dose (10 µM) SRB screen; type: cell-based, human; conditions: breast cancer, 48 h
# [26] = tested on: SW-620; assay: NCI single dose (10 µM) SRB screen; type: cell-based, human; conditions: colon cancer, 48 h
# [27] = tested on: SK-MEL-2; assay: NCI single dose (10 µM) SRB screen; type: cell-based, human; conditions: melanoma, 48 h
# [28] = tested on: SN12C; assay: NCI single dose (10 µM) SRB screen; type: cell-based, human; conditions: renal cancer, 48 h
# [29] = tested on: Pseudomonas aeruginosa; assay: Agar well diffusion method; conditions: relative to ciprofloxacin
# [30] = tested on: NCI-H226; assay: NCI single dose (10 µM) SRB screen; type: cell-based, human; conditions: non-small cell lung cancer, 48 h
# [31] = tested on: MDA-MB-468; assay: NCI single dose (10 µM) SRB screen; type: cell-based, human; conditions: breast cancer, 48 h
# [32] = tested on: OVCAR-3; assay: NCI single dose (10 µM) SRB screen; type: cell-based, human; conditions: ovarian cancer, 48 h
# [33] = tested on: PC-3; assay: NCI single dose (10 µM) SRB screen; type: cell-based, human; conditions: prostate cancer, 48 h
# [34] = tested on: HOP-92; assay: NCI single dose (10 µM) SRB screen; type: cell-based, human; conditions: non-small cell lung cancer, 48 h
smiles,measurement,setting,value
"CC1=C(C(=O)OC(C)(C)C)C(c2cccc(C#N)c2)C(C(=O)OC(C)(C)C)=C(C)N1 [Compound 1e, Di-tert-butyl 4-(3-cyanophenyl)-2,6-dimethyl-1,4-dihydropyridine-3,5-dicarboxylate]",GI% COLO 205,[1],– (Only GI% ≥ 10 are shown)
same,GI% SR,[2],42%
same,GI% TK-10,[3],– (Only GI% ≥ 10 are shown)
same,Mean GI%,[4],14%
same,GI% SK-OV-3,[5],– (Only GI% ≥ 10 are shown)
same,GI% HS578T,[6],– (Only GI% ≥ 10 are shown)
same,GI% 786-0,[7],18%
same,"% activity index, S. aureus",[8],– (Values below 25 are of limited value and not shown as they refer either to inactive or non-diffusing compounds)
same,GI% UACC-62,[9],26%
same,GI% NCI/ADR-RES,[10],– (Only GI% ≥ 10 are shown)
same,GI% LOX IMVI,[11],10%
same,GI% SK-MEL-5,[12],14%
same,GI% A498,[13],– (Only GI% ≥ 10 are shown)
same,"% activity index, B. subtilis",[14],– (Values below 25 are of limited value and not shown as they refer either to inactive or non-diffusing compounds)
same,GI% MALME-3M,[15],– (Only GI% ≥ 10 are shown)
same,GI% OVCAR-4,[16],– (Only GI% ≥ 10 are shown)
same,"% activity index, A. flavus",[17],– (Values below 25 are of limited value and not shown as they refer either to inactive or non-diffusing compounds)
same,GI% EKVX,[18],20%
same,GI% SF-295,[19],27%
same,GI% M14,[20],– (Only GI% ≥ 10 are shown)
same,GI% SNB-75,[21],38%
same,GI% MDA-MB-231,[22],14%
same,GI% CAKI-1,[23],32%
same,GI% SK-MEL-28,[24],– (Only GI% ≥ 10 are shown)
same,GI% BT-549,[25],– (Only GI% ≥ 10 are shown)
same,GI% SW-620,[26],– (Only GI% ≥ 10 are shown)
same,GI% SK-MEL-2,[27],– (Only GI% ≥ 10 are shown)
same,GI% SN12C,[28],– (Only GI% ≥ 10 are shown)
same,"% activity index, P. aeruginosa",[29],– (Values below 25 are of limited value and not shown as they refer either to inactive or non-diffusing compounds)
same,GI% NCI-H226,[30],22%
same,GI% MDA-MB-468,[31],27%
same,GI% OVCAR-3,[32],– (Only GI% ≥ 10 are shown)
same,GI% PC-3,[33],48%
same,GI% HOP-92,[34],30%
